Laboratory results as given in PubChem BioAssay AID1259407 (Chemical Carcinogenesis Research Information System (CCRIS), 2018).
The source made the active and inactive calls. How the calls were made is not given here.

System: CCRIS mutagenicity, Ames/micronucleus/aberration tests
Assay: CCRIS mutagenicity studies
[1] = Test System: AMES SALMONELLA TYPHIMURIUM, Strain/Indicator: TA98, Metabolic Activation: NONE, Method: STANDARD PLATE
[2] = Test System: AMES SALMONELLA TYPHIMURIUM, Strain/Indicator: TA98, Metabolic Activation: RAT, LIVER, S-9, AROCLOR 1254, Method: STANDARD PLATE
[3] = Test System: AMES SALMONELLA TYPHIMURIUM, Strain/Indicator: TA100, Metabolic Activation: NONE, Method: STANDARD PLATE
[4] = Test System: AMES SALMONELLA TYPHIMURIUM, Strain/Indicator: TA100, Metabolic Activation: RAT, LIVER, S-9, AROCLOR 1254, Method: STANDARD PLATE
[5] = Test System: AMES SALMONELLA TYPHIMURIUM, Strain/Indicator: TA1535, Metabolic Activation: RAT, LIVER, S-9, AROCLOR 1254, Method: STANDARD PLATE
[6] = Test System: AMES SALMONELLA TYPHIMURIUM, Strain/Indicator: TA1538, Metabolic Activation: NONE, Method: STANDARD PLATE
[7] = Test System: AMES SALMONELLA TYPHIMURIUM, Strain/Indicator: TA1538, Metabolic Activation: RAT, LIVER, S-9, AROCLOR 1254, Method: STANDARD PLATE
[8] = Test System: AMES SALMONELLA TYPHIMURIUM, Strain/Indicator: TA98, Metabolic Activation: RAT, LIVER, S-9, PHENOBARBITAL, Method: STANDARD PLATE
[9] = Test System: AMES SALMONELLA TYPHIMURIUM, Strain/Indicator: TA100, Metabolic Activation: RAT, LIVER, S-9, PHENOBARBITAL, Method: STANDARD PLATE

## COc1c(N)cc(C)c(N)c1C
[1]
  mutagenic call: inactive; negative
[2]
  mutagenic call: inactive; negative
[3]
  mutagenic call: inactive; negative
[4]
  mutagenic call: inactive; negative
Test System: AMES SALMONELLA TYPHIMURIUM, Strain/Indicator: TA1535, Metabolic Activation: NONE, Method: STANDARD PLATE
  mutagenic call: inactive; negative
[5]
  mutagenic call: inactive; negative
Test System: AMES SALMONELLA TYPHIMURIUM, Strain/Indicator: TA1537, Metabolic Activation: NONE, Method: STANDARD PLATE
  mutagenic call: inactive; negative
Test System: AMES SALMONELLA TYPHIMURIUM, Strain/Indicator: TA1537, Metabolic Activation: RAT, LIVER, S-9, AROCLOR 1254, Method: STANDARD PLATE
  mutagenic call: inactive; negative
[6]
  mutagenic call: inactive; negative
[7]
  mutagenic call: inactive; negative

## C=CC(O)CO (stereo not given)
Test System: Mouse splenic T lymphocytes in vivo, Strain/Indicator: B6C3F1 females (HPRT)/6-Thioguanine, Metabolic Activation: None, Method: Inhalation at 0, 6, 18, 36 ppm 6 hr/day for 4 wks (sacrifice 2-8 wks post exposure)
  mutagenic call: active; positive (especially at 5.5-6 wk after last exposure)
Test System: Mouse splenic T lymphocytes in vivo, Strain/Indicator: B6C3F1 males (HPRT)/6-Thioguanine, Metabolic Activation: None, Method: Inhalation at 0, 6, 18, 36 ppm 6 hr/day for 4 wks (sacrifice 2-8 wks post exposure)
  mutagenic call: active; positive (especially at 5.5-6 wk after last exposure)
Test System: Rat splenic T lymphocytes in vivo, Strain/Indicator: F344 females (HPRT)/6-Thioguanine, Metabolic Activation: None, Method: Inhalation at 0, 36 ppm 6 hr/day for 4 wks (sacrifice 2-8 wks post exposure)
  mutagenic call: active; positive (at 5-6 wks)

## O=C(O)C[C@H](NC(=O)COc1ccc(Cl)cc1Cl)C(=O)O
Test System: AMES SALMONELLA TYPHIMURIUM, Strain/Indicator: TA97, Metabolic Activation: RAT, LIVER, S-9, AROCLOR 1254, Method: STANDARD PLATE
  mutagenic call: inactive; negative
Test System: AMES SALMONELLA TYPHIMURIUM, Strain/Indicator: TA97, Metabolic Activation: WOODCHUCK, LIVER, S-9, 3-METHYLCHOLANTHRENE, Method: STANDARD PLATE
  mutagenic call: inactive; negative
[2]
  mutagenic call: inactive; negative
Test System: AMES SALMONELLA TYPHIMURIUM, Strain/Indicator: TA98, Metabolic Activation: WOODCHUCK, LIVER, S-9, 3-METHYLCHOLANTHRENE, Method: STANDARD PLATE
  mutagenic call: inactive; negative
[4]
  mutagenic call: inactive; negative
Test System: AMES SALMONELLA TYPHIMURIUM, Strain/Indicator: TA100, Metabolic Activation: WOODCHUCK, LIVER, S-9, 3-METHYLCHOLANTHRENE, Method: STANDARD PLATE
  mutagenic call: inactive; negative
[5]
  mutagenic call: inactive; negative
Test System: AMES SALMONELLA TYPHIMURIUM, Strain/Indicator: TA1535, Metabolic Activation: WOODCHUCK, LIVER, S-9, 3-METHYLCHOLANTHRENE, Method: STANDARD PLATE
  mutagenic call: inactive; negative
[7]
  mutagenic call: inactive; negative
Test System: AMES SALMONELLA TYPHIMURIUM, Strain/Indicator: TA1538, Metabolic Activation: WOODCHUCK, LIVER, S-9, 3-METHYLCHOLANTHRENE, Method: STANDARD PLATE
  mutagenic call: inactive; negative

## C=CCc1cc(OC)c2c(c1)OCO2
Test System: UDS RAT HEPATOCYTES, Strain/Indicator: THY INCORP, Metabolic Activation: NONE, Method: LIQUID SCINTILLATION COUNTING
  mutagenic call: inactive; negative

## CC(=O)OCN(C)[N+](=O)[O-]
Test System: AMES SALMONELLA TYPHIMURIUM, Strain/Indicator: TA100, Metabolic Activation: RAT, LIVER, S-9, AROCLOR 1254, Method: PREINCUBATION
  mutagenic call: active; positive

## COc1cc2nc3occc3c(OC)c2cc1OC
[8]
  mutagenic call: active; positive
[9]
  mutagenic call: active; positive

## CC(=O)CN(C)N=O
Test System: AMES SALMONELLA TYPHIMURIUM, Strain/Indicator: TA100, Metabolic Activation: HAMSTER, LIVER, S-9, 3-METHYLCHOLANTHRENE, Method: PREINCUBATION
  mutagenic call: active; positive
Test System: AMES SALMONELLA TYPHIMURIUM, Strain/Indicator: TA100, Metabolic Activation: HAMSTER, LIVER, S-9, PHENOBARBITAL, Method: PREINCUBATION
  mutagenic call: active; positive
Test System: AMES SALMONELLA TYPHIMURIUM, Strain/Indicator: TA100, Metabolic Activation: HUMAN, LIVER, S-9, Method: PREINCUBATION
  mutagenic call: inactive; negative
Test System: AMES SALMONELLA TYPHIMURIUM, Strain/Indicator: TA100, Metabolic Activation: MONKEY, LIVER, S-9, Method: PREINCUBATION
  mutagenic call: active; positive
Test System: AMES SALMONELLA TYPHIMURIUM, Strain/Indicator: TA100, Metabolic Activation: MOUSE, LIVER, S-9, 3-METHYLCHOLANTHRENE, Method: PREINCUBATION
  mutagenic call: active; positive
Test System: AMES SALMONELLA TYPHIMURIUM, Strain/Indicator: TA100, Metabolic Activation: MOUSE, LIVER, S-9, PHENOBARBITAL, Method: PREINCUBATION
  mutagenic call: active; positive
Test System: AMES SALMONELLA TYPHIMURIUM, Strain/Indicator: TA100, Metabolic Activation: MOUSE, LIVER, S-9, Method: PREINCUBATION
  mutagenic call: active; positive
Test System: AMES SALMONELLA TYPHIMURIUM, Strain/Indicator: TA100, Metabolic Activation: NONE, Method: PREINCUBATION
  mutagenic call: inactive; negative
Test System: AMES SALMONELLA TYPHIMURIUM, Strain/Indicator: TA100, Metabolic Activation: RABBIT, LIVER, S-9, Method: PREINCUBATION
  mutagenic call: active; positive
Test System: AMES SALMONELLA TYPHIMURIUM, Strain/Indicator: TA100, Metabolic Activation: RAT, LIVER, CYTOSOL, PCB, Method: PREINCUBATION
  mutagenic call: inactive; negative
Test System: AMES SALMONELLA TYPHIMURIUM, Strain/Indicator: TA100, Metabolic Activation: RAT, LIVER, MICROSOMES AND CYTOSOL, PCB, Method: PREINCUBATION
  mutagenic call: active; positive
Test System: AMES SALMONELLA TYPHIMURIUM, Strain/Indicator: TA100, Metabolic Activation: RAT, LIVER, MICROSOMES AND G6PDH, PCB, Method: PREINCUBATION
  mutagenic call: active; positive
Test System: AMES SALMONELLA TYPHIMURIUM, Strain/Indicator: TA100, Metabolic Activation: RAT, LIVER, MICROSOMES, PCB, Method: PREINCUBATION
  mutagenic call: active; positive
Test System: AMES SALMONELLA TYPHIMURIUM, Strain/Indicator: TA100, Metabolic Activation: RAT, LIVER, S-9 (HEATED), PCB, Method: PREINCUBATION
  mutagenic call: inactive; negative
Test System: AMES SALMONELLA TYPHIMURIUM, Strain/Indicator: TA100, Metabolic Activation: RAT, LIVER, S-9, 3-METHYLCHOLANTHRENE, Method: PREINCUBATION
  mutagenic call: inactive; negative
Test System: AMES SALMONELLA TYPHIMURIUM, Strain/Indicator: TA100, Metabolic Activation: RAT, LIVER, S-9, PCB, Method: PREINCUBATION
  mutagenic call: active; positive
Test System: AMES SALMONELLA TYPHIMURIUM, Strain/Indicator: TA100, Metabolic Activation: RAT, LIVER, S-9, PHENOBARBITAL, Method: PREINCUBATION
  mutagenic call: active; positive
Test System: AMES SALMONELLA TYPHIMURIUM, Strain/Indicator: TA100, Metabolic Activation: RAT, LIVER, S-9 WITHOUT NADP+, PCB, Method: PREINCUBATION
  mutagenic call: inactive; negative
Test System: AMES SALMONELLA TYPHIMURIUM, Strain/Indicator: TA100, Method: PREINCUBATION
  mutagenic call: active; positive
Test System: CHINESE HAMSTER V-79, Strain/Indicator: V-79/OUABAIN, Metabolic Activation: HAMSTER, HEPATOCYTES, Method: CELL-MEDIATED
  mutagenic call: active; positive

## O=[N+]([O-])c1cccc2c1[nH]c1ccccc12
[1]
  mutagenic call: active; positive
[2]
  mutagenic call: active; positive
[8]
  mutagenic call: active; positive
[3]
  mutagenic call: inactive; negative
[9]
  mutagenic call: inactive; negative
[6]
  mutagenic call: active; positive
Test System: AMES SALMONELLA TYPHIMURIUM, Strain/Indicator: TA1538, Metabolic Activation: RAT, LIVER, S-9, PHENOBARBITAL, Method: STANDARD PLATE
  mutagenic call: active; positive
Test System: AMES SALMONELLA TYPHIMURIUM, Strain/Indicator: TA1977, Metabolic Activation: NONE, Method: STANDARD PLATE
  mutagenic call: inactive; negative
Test System: AMES SALMONELLA TYPHIMURIUM, Strain/Indicator: TA1977, Metabolic Activation: RAT, LIVER, S-9, PHENOBARBITAL, Method: STANDARD PLATE
  mutagenic call: inactive; negative

## Cc1cccc2cc3ccccc3cc12
[1]
  mutagenic call: inactive; negative
[2]
  mutagenic call: inactive; negative
[3]
  mutagenic call: inactive; negative
[4]
  mutagenic call: inactive; negative
